Test results taken from patent US11505575B2, “Cyclic polypeptides for PCSK9 inhibition” (Merck Sharp & Dohme LLC, priority 2018, dated 2022).
*1 amine or outer side, *2 acyl side, *3 side chain or, on linkers, in order; H or OH if unused. Where a SMILES comes first, the peptide text is derived from it. Bridges are numbered along the chain shown (N, C = ends). [ ]: non-standard residue; d: D form. X6 = C[C@@H](O)[C@H](CC(=O)[C@H](Cc1cnc[nH]1)N[*:1])C(=O)[*:2]; Ala(4-isoquinolinyl) = N[C@@H](Cc1cncc2ccccc12)C(=O)O; Trp(βS-Me) = C[C@@H](c1c[nH]c2ccccc12)[C@H](N)C(=O)O; Phe(4-guanidino) = N=C(N)Nc1ccc(C[C@H](N)C(=O)O)cc1; X4 = O=C([C@H](Cc1cc2cc(F)ccc2[nH]1)N[*:1])[*:2]; X3 = N=C(N)NCc1ccc(C[C@H](N[*:1])C(=O)[*:2])cc1; Trp(7-aza) = N[C@@H](Cc1c[nH]c2ncccc12)C(=O)O; Phe(4-CH2NH2) = NCc1ccc(C[C@H](N)C(=O)O)cc1; mXylylene = c1cc(C[*:1])cc(C[*:2])c1; Agp = N=C(N)NC[C@H](N)C(=O)O; Tle = CC(C)(C)[C@H](N)C(=O)O; Nva = CCC[C@H](N)C(=O)O; Mpa = O=C(O)CCS

Legend:
[1] = molecular target: human PCSK9 / human LDLR EGFa domain interaction (Homo sapiens, UniProt Q8NBP7); assay: TR-FRET assay of inhibition of the PCSK9-LDLR protein-protein interaction; assay type: binding; settings: 20 nM biotinylated human PCSK9 + 20 nM his-tagged human LDLR EGFa domain, 2 hours room temperature
Chain of human PCSK9 / human LDLR EGFa domain interaction (Q8NBP7 153-692): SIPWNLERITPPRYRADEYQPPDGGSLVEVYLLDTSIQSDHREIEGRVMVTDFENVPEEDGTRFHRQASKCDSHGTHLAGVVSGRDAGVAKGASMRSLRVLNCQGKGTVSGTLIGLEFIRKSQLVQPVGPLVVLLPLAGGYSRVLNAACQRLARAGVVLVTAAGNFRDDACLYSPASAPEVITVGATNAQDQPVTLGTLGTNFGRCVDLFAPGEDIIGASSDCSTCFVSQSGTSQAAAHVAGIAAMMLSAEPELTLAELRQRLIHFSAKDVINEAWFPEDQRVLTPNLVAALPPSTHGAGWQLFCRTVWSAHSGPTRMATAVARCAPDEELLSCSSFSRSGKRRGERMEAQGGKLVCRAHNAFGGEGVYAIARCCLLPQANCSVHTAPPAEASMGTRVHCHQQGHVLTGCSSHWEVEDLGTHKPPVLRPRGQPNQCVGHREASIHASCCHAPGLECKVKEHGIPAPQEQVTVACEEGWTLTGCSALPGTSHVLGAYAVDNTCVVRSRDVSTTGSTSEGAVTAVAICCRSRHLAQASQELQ
Chain of human PCSK9 / human LDLR EGFa domain interaction (Q8NBP7 31-152 partner limits assumed): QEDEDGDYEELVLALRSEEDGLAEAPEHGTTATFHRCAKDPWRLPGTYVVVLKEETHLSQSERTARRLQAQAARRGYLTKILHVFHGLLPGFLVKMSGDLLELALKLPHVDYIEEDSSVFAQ
In short: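 Biotinylated human PCSK9 (20 nM) and His-tagged human LDLR EGFa domain (20 nM) incubated with Ulight-streptavidin and Eu-anti-His (5 nM each), 2 h at room temperature, in HEPES pH buffer with 5 mM CaCl2. TR-FRET read-out; IC50 from 4-parameter fit of dose-response.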

[2] = molecular target: T1, PCSK9 (Homo sapiens, UniProt Q8NBP7); assay: PCSK9 Alexa FRET Standard assay (displacement of AlexaFluor647-tagged cyclic peptide Reagent A); assay type: binding; settings: 0.5 nM PCSK9, 20 nM AF cyclic peptide Reagent A
T1 construct: biotin (biotinylated)
T1 sequence (Q8NBP7 153-692): as the sequence (Q8NBP7 153-692) above
Procedure: A solution containing 1 nM biotinylated PCSK9+2.5 nM Lance Streptavidin Europium (Strep-Eu) was made in 50 mM HEPES pH 7.4, 0.15 M NaCl, 5 mM CaCl2, 0.01% BSA, and 0.01% Surfactant P20. A separate solution containing 40 nM of the AlexaFluor tagged cyclic peptide was made in the same buffer system. An Echo was used to transfer 0.750 ul of compound to an assay plate followed by the addition of 15 ul of PCSK9+Stept-Eu and 15 ul of AF peptide. The final assay volume was 30.750 ul containing 0.5 nM PCSK9, 1.25 nM Strep-Eu, and 20 nM AF cyclic peptide. The reaction was incubated at room temperature for at least two hours prior to fluorescence measurements using an Envision Multilabel Reader. IC50 values were determined by fitting data to a sigmoidal dose-response curve using nonlinear regression. Ki was then calculated from the IC50 and the KD of AF cyclic peptide. Counts (B-counts) of the europium-labeled PCSK9 were followed to observe if compounds were […]. A fall off of the B-counts likely indicated a false positive of inhibition. Data from this procedure was reported as “A=‘numerical value’ (nanomolar)”

SMILES	IC50 [1] [nM]	IC50 [2] [nM]
CCC[C@@H]1NC(=O)[C@H](Cc2cncc3ccccc23)NC(=O)[C@H]([C@@H](C)O)CC(=O)[C@H](Cc2cnc[nH]2)NC(=O)[C@H](Cc2ccc(O)cc2)NC(=O)[C@H](C(C)(C)C)NC(=O)CCSCc2cccc(c2)CSC[C@@H](C(N)=O)NC(=O)[C@H]([C@@H](C)O)NC(=O)[C@H](CCC)NC(=O)[C@H](Cc2ccc(O)cc2)NC(=O)[C@H](CCC(=O)O)NC1=O [Compound 052] ([Mpa][Tle]Y[X6][Ala(4-isoquinolinyl)][Nva]EY[Nva]TC-NH2; linker 1-11 via mXylylene)	100 to 1000	100 to 1000
CCC[C@@H]1NC(=O)[C@H](Cc2c[nH]c3ncccc23)NC(=O)[C@H]([C@@H](C)O)NC(=O)[C@H](Cc2cnc[nH]2)NC(=O)[C@H](Cc2ccc(O)cc2)NC(=O)[C@H](C(C)(C)C)NC(=O)CCSCc2cccc(c2)CSC[C@@H](C(N)=O)NC(=O)[C@H]([C@@H](C)O)NC(=O)[C@H](Cc2ccc(O)cc2)NC(=O)[C@H](Cc2ccc(O)cc2)NC(=O)[C@H](CCC(=O)O)NC1=O [Compound 071] ([Mpa][Tle]YHT[Trp(7-aza)][Nva]EYYTC-NH2; linker 1-12 via mXylylene)	100 to 1000	1 to 100
CCC[C@@H]1NC(=O)[C@H](Cc2c[nH]c3ncccc23)NC(=O)[C@H]([C@@H](C)O)NC(=O)[C@H](Cc2cnc[nH]2)NC(=O)[C@H](Cc2ccc(O)cc2)NC(=O)[C@H](Cc2ccc(CN)cc2)NC(=O)CCSCc2cccc(c2)CSC[C@@H](C(N)=O)NC(=O)[C@H]([C@@H](C)O)NC(=O)[C@H](CCC)NC(=O)[C@H](Cc2ccc(O)cc2)NC(=O)[C@H](CCC(=O)O)NC1=O [Compound 086] ([Mpa][Phe(4-CH2NH2)]YHT[Trp(7-aza)][Nva]EY[Nva]TC-NH2; linker 1-12 via mXylylene)	100 to 1000	100 to 1000
CCC[C@@H]1NC(=O)[C@H](Cc2c[nH]c3ncccc23)NC(=O)[C@H]([C@@H](C)O)NC(=O)[C@H](CNC(=N)N)NC(=O)[C@H](Cc2ccc(O)cc2)NC(=O)[C@H](Cc2cc3cc(F)ccc3[nH]2)NC(=O)[C@@H](NC(=O)[C@H](Cc2ccc(NC(=N)N)cc2)NC(C)=O)CSCc2cccc(c2)CSC[C@@H](C(N)=O)NC(=O)[C@H]([C@@H](C)O)NC(=O)[C@H](CCC)NC(=O)[C@H](Cc2ccc(O)cc2)NC(=O)[C@H](CCC(=O)O)NC1=O [Compound 091] (Ac-[Phe(4-guanidino)]C[X4]Y[Agp]T[Trp(7-aza)][Nva]EY[Nva]TC-NH2; linker 2-13 via mXylylene)	100 to 1000	1 to 100

The next lines start with the values.

IC50 [1] [nM]	IC50 [2] [nM]	SMILES
1 to 100	1 to 100	CCC[C@@H]1NC(=O)[C@H](Cc2c[nH]c3ncccc23)NC(=O)[C@H]([C@@H](C)O)NC(=O)[C@H](Cc2cnc[nH]2)NC(=O)[C@H](Cc2ccc(O)cc2)NC(=O)[C@H]([C@@H](C)c2c[nH]c3ccccc23)NC(=O)CCSCc2cccc(c2)CSC[C@@H](C(N)=O)NC(=O)[C@H]([C@@H](C)O)NC(=O)[C@H](CCC)NC(=O)[C@H](Cc2ccc(O)cc2)NC(=O)[C@H](CCC(=O)O)NC1=O [Compound 097] ([Mpa][Trp(βS-Me)]YHT[Trp(7-aza)][Nva]EY[Nva]TC-NH2; linker 1-12 via mXylylene)
21000 to 50000	100 to 1000	CCC[C@@H]1NC(=O)[C@H](Cc2c[nH]c3ncccc23)NC(=O)[C@H]([C@@H](C)O)NC(=O)[C@H](Cc2cnc[nH]2)NC(=O)[C@H](Cc2ccc(O)cc2)NC(=O)[C@H](C(C)(C)C)NC(=O)[C@@H](NC(=O)[C@H](Cc2ccc(CNC(=N)N)cc2)NC(C)=O)CSCc2cccc(c2)CSC[C@@H](C(N)=O)NC(=O)[C@H]([C@@H](C)O)NC(=O)[C@H](CCC)NC(=O)[C@H](Cc2ccc(O)cc2)NC(=O)[C@H](CCC(=O)O)NC1=O [Compound 098] (Ac-[X3]C[Tle]YHT[Trp(7-aza)][Nva]EY[Nva]TC-NH2; linker 2-13 via mXylylene)
